target: T1, Progesterone receptor (Homo sapiens) (UniProt P06401); details: CV-1
T1 sequence (whole entry): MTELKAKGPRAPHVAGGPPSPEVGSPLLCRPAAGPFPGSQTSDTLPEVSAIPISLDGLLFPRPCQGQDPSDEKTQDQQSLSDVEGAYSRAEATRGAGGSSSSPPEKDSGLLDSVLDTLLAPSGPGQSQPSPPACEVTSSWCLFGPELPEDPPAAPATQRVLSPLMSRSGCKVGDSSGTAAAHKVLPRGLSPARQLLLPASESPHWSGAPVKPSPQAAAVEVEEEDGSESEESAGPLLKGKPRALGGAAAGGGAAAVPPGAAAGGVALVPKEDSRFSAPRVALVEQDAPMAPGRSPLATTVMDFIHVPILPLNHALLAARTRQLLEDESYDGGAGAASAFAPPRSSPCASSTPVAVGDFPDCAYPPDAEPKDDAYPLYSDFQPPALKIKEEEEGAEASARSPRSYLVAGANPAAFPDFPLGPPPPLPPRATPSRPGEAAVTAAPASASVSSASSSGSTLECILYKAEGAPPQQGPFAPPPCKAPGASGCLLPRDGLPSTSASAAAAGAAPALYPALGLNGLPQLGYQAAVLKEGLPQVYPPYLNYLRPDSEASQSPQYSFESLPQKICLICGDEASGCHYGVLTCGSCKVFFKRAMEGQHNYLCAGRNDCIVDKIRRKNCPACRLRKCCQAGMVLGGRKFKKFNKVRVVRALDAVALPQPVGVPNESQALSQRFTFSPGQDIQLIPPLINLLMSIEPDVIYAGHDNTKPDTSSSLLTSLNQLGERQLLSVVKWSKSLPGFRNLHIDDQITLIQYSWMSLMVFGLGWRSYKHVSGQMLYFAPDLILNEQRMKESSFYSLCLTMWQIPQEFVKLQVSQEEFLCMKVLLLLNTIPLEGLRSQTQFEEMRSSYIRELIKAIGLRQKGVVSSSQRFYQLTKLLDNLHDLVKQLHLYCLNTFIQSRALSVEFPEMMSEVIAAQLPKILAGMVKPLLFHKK

Max inhibition [%] | SMILES
93 | CCOC1=CC(=O)C(Cc2ccc([N+](=O)[O-])cc2)C(C)(C)C1 (configuration not stated)
98 | C=C1CCC(C)(C)C1Cc1cc(OC)c(Br)cc1O (configuration not stated)
93 | C=C1CCC[C@H](C)[C@H]1Cc1cc(OC)c(Br)cc1O
78 | C=C1[C@@H](Cc2cc(OC)c(Br)cc2O)C(C)(C)CC[C@@]1(C)O
42 | C=C1C=C(C)CC(C)(C)C1Cc1cc(OC)c(Br)cc1OC(C)=O (configuration not stated)
52 | C=C1C=C(C)C[C@@H](C)[C@@H]1Cc1cc(OC)c(Br)cc1OC(C)=O
63 | C=C1C[C@H](C)C[C@@H](C)[C@@H]1Cc1cc(OC)c(Br)cc1O
73 | C=C1[C@H](O)CCC(C)(C)[C@@H]1Cc1cc(OC)c(Br)cc1O
< 20 | C=C1C[C@H](C)CC(C)(C)[C@@H]1Cc1cc(OC)c(Br)cc1O
71 | C=C1C=CCC(C)(C)C1Cc1cc(OC)c(Br)cc1O (configuration not stated)
83 | C=C1C(C)=CCC(C)(C)[C@@H]1Cc1cc(OC)c(Br)cc1OC(C)=O

target: T2, Androgen receptor (Homo sapiens, UniProt P10275); details: not given
T2 sequence (P10275 whole entry): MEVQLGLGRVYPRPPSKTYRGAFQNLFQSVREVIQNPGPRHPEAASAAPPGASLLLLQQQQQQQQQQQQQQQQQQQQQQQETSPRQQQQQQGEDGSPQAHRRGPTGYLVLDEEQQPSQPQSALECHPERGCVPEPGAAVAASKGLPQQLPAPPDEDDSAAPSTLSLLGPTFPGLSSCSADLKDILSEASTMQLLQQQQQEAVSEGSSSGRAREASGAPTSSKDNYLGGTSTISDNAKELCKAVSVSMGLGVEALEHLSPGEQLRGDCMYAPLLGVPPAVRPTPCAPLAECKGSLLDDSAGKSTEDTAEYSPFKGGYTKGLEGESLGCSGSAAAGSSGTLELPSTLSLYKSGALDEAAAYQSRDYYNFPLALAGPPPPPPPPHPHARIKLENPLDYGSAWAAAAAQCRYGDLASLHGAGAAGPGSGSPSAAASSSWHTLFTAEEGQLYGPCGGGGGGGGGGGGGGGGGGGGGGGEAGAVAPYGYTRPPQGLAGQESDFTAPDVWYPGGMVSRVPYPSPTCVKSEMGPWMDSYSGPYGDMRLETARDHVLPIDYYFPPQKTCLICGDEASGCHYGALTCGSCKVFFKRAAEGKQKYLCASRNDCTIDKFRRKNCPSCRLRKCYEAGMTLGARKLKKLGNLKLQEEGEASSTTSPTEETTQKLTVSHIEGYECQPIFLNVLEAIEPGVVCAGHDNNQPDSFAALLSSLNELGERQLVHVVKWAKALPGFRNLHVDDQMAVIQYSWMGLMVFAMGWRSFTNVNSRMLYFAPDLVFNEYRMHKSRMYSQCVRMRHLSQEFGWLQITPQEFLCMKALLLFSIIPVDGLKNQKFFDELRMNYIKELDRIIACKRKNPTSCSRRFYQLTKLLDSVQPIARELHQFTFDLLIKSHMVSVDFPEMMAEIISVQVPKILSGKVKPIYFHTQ

Ki | SMILES
10000 nM (not active) | CCOC1=CC(=O)C(Cc2ccc([N+](=O)[O-])cc2)C(C)(C)C1 (configuration not stated)
1920 nM | C=C1CCC(C)(C)C1Cc1cc(OC)c(Br)cc1O (configuration not stated)
1640 nM | C=C1CCC[C@H](C)[C@H]1Cc1cc(OC)c(Br)cc1O
6660 nM | C=C1[C@@H](Cc2cc(OC)c(Br)cc2O)C(C)(C)CC[C@@]1(C)O
1940 nM | C=C1C=C(C)CC(C)(C)C1Cc1cc(OC)c(Br)cc1OC(C)=O (configuration not stated)
1500 nM | C=C1C=C(C)C[C@@H](C)[C@@H]1Cc1cc(OC)c(Br)cc1OC(C)=O
1140 nM | C=C1C[C@H](C)C[C@@H](C)[C@@H]1Cc1cc(OC)c(Br)cc1O
10000 nM (not active) | C=C1[C@H](O)CCC(C)(C)[C@@H]1Cc1cc(OC)c(Br)cc1O
696 nM | C=C1C[C@H](C)CC(C)(C)[C@@H]1Cc1cc(OC)c(Br)cc1O
1520 nM | C=C1C=CCC(C)(C)C1Cc1cc(OC)c(Br)cc1O (configuration not stated)
6390 nM | C=C1C(C)=CCC(C)(C)[C@@H]1Cc1cc(OC)c(Br)cc1OC(C)=O

target: T3, Progesterone receptor (Homo sapiens, UniProt P06401); details: not given
T3 sequence (P06401 whole entry): T1 sequence (whole entry)

IC50 [nM] | SMILES
2440 | CCOC1=CC(=O)C(Cc2ccc([N+](=O)[O-])cc2)C(C)(C)C1 (configuration not stated)
1200 | C=C1CCC(C)(C)C1Cc1cc(OC)c(Br)cc1O (configuration not stated)
1050 | C=C1CCC[C@H](C)[C@H]1Cc1cc(OC)c(Br)cc1O
2000 | C=C1[C@@H](Cc2cc(OC)c(Br)cc2O)C(C)(C)CC[C@@]1(C)O
710 | C=C1C=C(C)CC(C)(C)C1Cc1cc(OC)c(Br)cc1OC(C)=O (configuration not stated)
350 | C=C1C=C(C)C[C@@H](C)[C@@H]1Cc1cc(OC)c(Br)cc1OC(C)=O
985 | C=C1C[C@H](C)C[C@@H](C)[C@@H]1Cc1cc(OC)c(Br)cc1O
3400 | C=C1[C@H](O)CCC(C)(C)[C@@H]1Cc1cc(OC)c(Br)cc1O
783 | C=C1C=CCC(C)(C)C1Cc1cc(OC)c(Br)cc1O (configuration not stated)
660 | C=C1C(C)=CCC(C)(C)[C@@H]1Cc1cc(OC)c(Br)cc1OC(C)=O

target: T3, Progesterone receptor; details: not given; remark: another data set of the same source

EC50 [nM] | SMILES
1460 | C=C1C=C(C)CC(C)(C)C1Cc1cc(OC)c(Br)cc1OC(C)=O (configuration not stated)
3010 | C=C1C=C(C)C[C@@H](C)[C@@H]1Cc1cc(OC)c(Br)cc1OC(C)=O

target: T3, Progesterone receptor; details: not given; remark: another data set of the same source

IC50 [nM] | SMILES
250 | C=C1CCC(C)(C)C1Cc1cc(OC)c(Br)cc1O (configuration not stated)
300 | C=C1CCC[C@H](C)[C@H]1Cc1cc(OC)c(Br)cc1O
430 | C=C1[C@@H](Cc2cc(OC)c(Br)cc2O)C(C)(C)CC[C@@]1(C)O
770 | C=C1C=C(C)CC(C)(C)C1Cc1cc(OC)c(Br)cc1OC(C)=O (configuration not stated)
147 | C=C1C=C(C)C[C@@H](C)[C@@H]1Cc1cc(OC)c(Br)cc1OC(C)=O
350 | C=C1C[C@H](C)C[C@@H](C)[C@@H]1Cc1cc(OC)c(Br)cc1O
1700 | C=C1[C@H](O)CCC(C)(C)[C@@H]1Cc1cc(OC)c(Br)cc1O
> 10000 | C=C1C[C@H](C)CC(C)(C)[C@@H]1Cc1cc(OC)c(Br)cc1O
280 | C=C1C=CCC(C)(C)C1Cc1cc(OC)c(Br)cc1O (configuration not stated)
210 | C=C1C(C)=CCC(C)(C)[C@@H]1Cc1cc(OC)c(Br)cc1OC(C)=O

target: T3, Progesterone receptor; details: not given; remark: another data set of the same source

EC50 [nM] | SMILES
458 | C=C1C[C@H](C)CC(C)(C)[C@@H]1Cc1cc(OC)c(Br)cc1O

target: T3, Progesterone receptor; details: not given; remark: another data set of the same source

Ki | SMILES
> 10000 nM | CCOC1=CC(=O)C(Cc2ccc([N+](=O)[O-])cc2)C(C)(C)C1 (configuration not stated)
441 nM | C=C1CCC(C)(C)C1Cc1cc(OC)c(Br)cc1O (configuration not stated)
71 nM | C=C1CCC[C@H](C)[C@H]1Cc1cc(OC)c(Br)cc1O
275 nM | C=C1[C@@H](Cc2cc(OC)c(Br)cc2O)C(C)(C)CC[C@@]1(C)O
59.6 nM | C=C1C=C(C)CC(C)(C)C1Cc1cc(OC)c(Br)cc1OC(C)=O (configuration not stated)
21 nM | C=C1C=C(C)C[C@@H](C)[C@@H]1Cc1cc(OC)c(Br)cc1OC(C)=O
84 nM | C=C1C[C@H](C)C[C@@H](C)[C@@H]1Cc1cc(OC)c(Br)cc1O
10000 nM (not active) | C=C1[C@H](O)CCC(C)(C)[C@@H]1Cc1cc(OC)c(Br)cc1O
22 nM | C=C1C[C@H](C)CC(C)(C)[C@@H]1Cc1cc(OC)c(Br)cc1O
156 nM | C=C1C=CCC(C)(C)C1Cc1cc(OC)c(Br)cc1O (configuration not stated)
455 nM | C=C1C(C)=CCC(C)(C)[C@@H]1Cc1cc(OC)c(Br)cc1OC(C)=O

target: T4, Glucocorticoid receptor (Homo sapiens, UniProt P04150); details: not given
T4 sequence (P04150 whole entry): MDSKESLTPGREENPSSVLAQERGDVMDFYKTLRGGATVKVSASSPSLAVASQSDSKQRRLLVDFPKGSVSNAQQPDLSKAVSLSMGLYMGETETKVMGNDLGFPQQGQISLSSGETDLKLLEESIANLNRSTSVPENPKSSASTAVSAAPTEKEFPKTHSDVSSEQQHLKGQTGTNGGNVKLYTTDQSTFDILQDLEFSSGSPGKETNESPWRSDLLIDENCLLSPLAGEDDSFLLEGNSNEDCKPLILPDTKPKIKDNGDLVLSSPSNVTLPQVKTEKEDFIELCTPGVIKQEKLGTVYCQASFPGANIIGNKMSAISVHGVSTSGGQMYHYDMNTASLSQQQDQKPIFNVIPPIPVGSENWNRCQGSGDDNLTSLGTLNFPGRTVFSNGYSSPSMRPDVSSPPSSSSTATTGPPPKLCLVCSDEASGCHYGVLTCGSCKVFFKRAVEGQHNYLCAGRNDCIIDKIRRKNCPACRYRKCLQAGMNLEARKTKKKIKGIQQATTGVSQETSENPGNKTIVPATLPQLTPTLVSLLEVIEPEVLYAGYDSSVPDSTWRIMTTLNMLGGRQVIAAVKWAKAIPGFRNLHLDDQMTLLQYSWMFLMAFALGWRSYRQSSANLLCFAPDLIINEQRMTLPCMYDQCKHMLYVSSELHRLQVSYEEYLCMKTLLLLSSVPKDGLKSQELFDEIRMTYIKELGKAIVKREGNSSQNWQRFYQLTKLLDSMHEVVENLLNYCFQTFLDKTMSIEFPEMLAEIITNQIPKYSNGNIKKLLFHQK

Ki | SMILES
10000 nM (not active) | CCOC1=CC(=O)C(Cc2ccc([N+](=O)[O-])cc2)C(C)(C)C1 (configuration not stated)
4530 nM | C=C1CCC(C)(C)C1Cc1cc(OC)c(Br)cc1O (configuration not stated)
3700 nM | C=C1CCC[C@H](C)[C@H]1Cc1cc(OC)c(Br)cc1O
> 10000 nM | C=C1[C@@H](Cc2cc(OC)c(Br)cc2O)C(C)(C)CC[C@@]1(C)O
2200 nM | C=C1C=C(C)CC(C)(C)C1Cc1cc(OC)c(Br)cc1OC(C)=O (configuration not stated)
2380 nM | C=C1C=C(C)C[C@@H](C)[C@@H]1Cc1cc(OC)c(Br)cc1OC(C)=O
1660 nM | C=C1C[C@H](C)C[C@@H](C)[C@@H]1Cc1cc(OC)c(Br)cc1O
> 10000 nM | C=C1[C@H](O)CCC(C)(C)[C@@H]1Cc1cc(OC)c(Br)cc1O
1040 nM | C=C1C[C@H](C)CC(C)(C)[C@@H]1Cc1cc(OC)c(Br)cc1O
2780 nM | C=C1C=CCC(C)(C)C1Cc1cc(OC)c(Br)cc1O (configuration not stated)
4110 nM | C=C1C(C)=CCC(C)(C)[C@@H]1Cc1cc(OC)c(Br)cc1OC(C)=O

Source: ChEMBL document CHEMBL1129561 (J Med Chem, 1996)
